We go through 13 compounds from patent US20230271959A1, “HETEROCYCLIC COMPOUND AS BCL-2 INHIBITOR” (Beijing Innocare Pharma Tech Co., Ltd., priority 2020, published 2023).

What is called IC50 is the concentration that inhibits the measured activity by half.

The target of experiment [1] is T1, human recombinant Bcl-2 protein (Homo sapiens, UniProt P10415).
T1 construct: purchased Beijing Yigiao Shenzhou Biotechnology Co., Ltd. 10195-HOSE
Kind of experiment: Fluorescence polarization test for inhibition of BCL-2 binding to FITC-BIM. The following applies: 5 nM BCL-2, 5 nM FITC-BIM, read-out: FP BCL-2 IC50. The method, boiled down:
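FP competition: compound preincubated 15 min with recombinant human Bcl-2 (diluted to 5 nM), then FITC-BIM (diluted to 5 nM) added for 30 min at room temperature in PBS pH 7.4 with 1 mM DTT. Polarization read at 480/535 nm; IC50 from 8-point 4-fold series fitted by four-parameter equation.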
(In general: In fluorescence polarisation assays a small probe gives low polarisation when free and higher when bound to something large.)

Experiment [2] addresses T2, human recombinant Bcl-XL protein (Homo sapiens, UniProt Q07817).
T2 construct: purchased Beijing Yiqiao Shenzhou Biotechnology Co., Ltd. 10455-H0SE
Kind of experiment: Fluorescence polarization test for inhibition of BCL-XL binding to FITC-BIM. The following applies: 10 nM BCL-XL, 10 nM FITC-BIM, read-out: FP BCL-XL IC50. In a few lines:
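Human recombinant Bcl-XL (10 nM diluted stock) preincubated with compound 15 min at RT in PBS pH 7.4, 1 mM DTT, then FITC-BIM peptide (10 nM diluted stock) added for 30 min in dark. FP read at ex 480/em 535 nm; no-protein wells = 100% inhibition; IC50 from 8-point 4-fold dilution curve fit.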

Experiment [3] relates to RS4;11 cells (acute lymphoblastic leukemia cells). Kind of experiment: RS4;11 cell proliferation, CellTilter-Glo luminescence cell viability assay. It counts as cell-based. The following applies: Homo sapiens, RS4-11; CTG readout after 48 hours. The method, boiled down:
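RS4;11 cells plated overnight were exposed for 48 h at 37 °C, 5% CO2 to an 8-point, 4-fold compound dilution series; the vehicle control contained 0.2% DMSO. Viability was read by CellTiter-Glo luminescence. Percent inhibition was referenced to no-cell and DMSO controls, and IC50 came from a four-parameter sigmoidal fit.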

T1 sequence (P10415 whole entry): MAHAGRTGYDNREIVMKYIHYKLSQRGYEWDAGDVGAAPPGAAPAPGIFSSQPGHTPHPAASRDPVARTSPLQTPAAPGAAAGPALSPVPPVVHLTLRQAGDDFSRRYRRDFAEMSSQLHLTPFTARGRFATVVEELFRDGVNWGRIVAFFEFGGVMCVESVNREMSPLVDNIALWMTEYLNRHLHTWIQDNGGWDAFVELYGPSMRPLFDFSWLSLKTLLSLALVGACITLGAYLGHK
T2 sequence (Q07817 whole entry): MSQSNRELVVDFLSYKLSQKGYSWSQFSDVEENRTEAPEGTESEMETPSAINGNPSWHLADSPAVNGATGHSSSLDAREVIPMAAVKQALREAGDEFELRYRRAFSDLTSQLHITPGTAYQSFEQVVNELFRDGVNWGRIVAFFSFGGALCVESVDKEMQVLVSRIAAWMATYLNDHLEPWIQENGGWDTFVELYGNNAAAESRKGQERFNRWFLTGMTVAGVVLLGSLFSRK

As for `C[C@@H]1CCC(CN2CCN(c3ccc(C(=O)NS(=O)(=O)c4cc(F)c(NCC5CCOCC5)c([N+](=O)[O-])c4)c(Oc4cnc5[nH]ccc5c4)c3)[C@H](C)C2)=C(c2ccc(Cl)cc2)C1` [Example 25, 2-((1H-pyrrolo[2,3-b]pyridin-5-yl)oxy)-4-((R)-(((R)-4′-chloro-5-methyl-3,4,5,6-tetrahydro-[1,1′-biphenyl]-2-yl)methyl)-2-methylpiperazin-1-yl)-N-((3-fluoro-5-nitro-4-(((tetrahydro-2H-pyran-4-yl)methyl)amino)phenyl)sulfonyl)benzamide], the IC50 in experiment [1] is 2.71 nM; in experiment [2], more than 1000 nM; in experiment [3] it was 32 nM.

Regarding `C[C@@H]1CCC(CN2CCN(c3ccc(C(=O)NS(=O)(=O)c4cc(F)c(NC[C@H]5COCCO5)c([N+](=O)[O-])c4)c(Oc4cnc5[nH]ccc5c4)c3)[C@H](C)C2)=C(c2ccc(Cl)cc2)C1` [Example 26], the IC50 in experiment [1] was 1.63 nM; in experiment [2] it was more than 1000 nM; in experiment [3] it was 14 nM.

`C[C@@H]1CN(c2ccc(C(=O)NS(=O)(=O)c3ccc(NCC4CCOCC4)c([N+](=O)[O-])c3)c(Oc3cnc4[nH]ccc4c3)c2)CCN1CC1=C(c2ccc(Cl)cc2)CCC(C)(C)C1` [Example 27, (R)-2-((1H-pyrrolo[2,3-b]pyridin-5-yl)oxy)-4-(4-((4′-chloro-4,4-dimethyl-3,4,5,6-tetrahydro-[1,1′-biphenyl]-2-yl)methyl)-3-methylpiperazin-1-yl)-N-((3-nitro-4--(((tetrahydro-2H-pyran-4-yl)methyl)amino)phenyl)sulfonyl)benzamide]: the IC50 in experiment [1] is 5.12 nM; in experiment [2], more than 1000 nM; in experiment [3] it was 16 nM.

`C[C@@H]1CN(c2ccc(C(=O)NS(=O)(=O)c3cc(F)c(NCC4CCOCC4)c([N+](=O)[O-])c3)c(Oc3cnc4[nH]ccc4c3)c2)CCN1CC1=C(c2ccc(Cl)cc2)CCC(C)(C)C1` [Example 28, (R)-2-((1H-pyrrolo[2,3-b]pyridin-5-yl)oxy)-4-(4-((4′-chloro-4,4-dimethyl-3,4,5,6-tetrahydro-[1,1′-biphenyl]-2-yl)methyl)-3-methylpiperazin-1-yl)-N-((3-fluoro-5-nitro-4--(((tetrahydro-2H-pyran-4-yl)methyl)amino)phenyl)sulfonyl)benzamide]: the figures for the IC50 in experiment [1], in experiment [2] and in experiment [3] were 1.37 nM, more than 1000 nM and 6.55 nM, respectively.

As to `C[C@@H]1CN(c2ccc(C(=O)NS(=O)(=O)c3ccc(NC[C@H]4COCCO4)c([N+](=O)[O-])c3)c(Oc3cnc4[nH]ccc4c3)c2)CCN1CC1=C(c2ccc(Cl)cc2)CCC(C)(C)C1` [Example 29, N-((4-((((S)-1,4-dioxan-2-yl)methyl)amino)-3-nitrophenyl)sulfonyl)-2-((1H-pyrrolo[2,3-b]pyridin-5-yl)oxy)-4-((R)-4-((4′-chloro-4,4-dimethyl-3,4,5,6-tetrahydro-[1,1′-biphenyl]-2-yl)methyl)-3-methylpiperazin-1-yl) benzamide], the figures for the IC50 in experiment [1], in experiment [2] and in experiment [3] were 1.6 nM, more than 1000 nM and 4.2 nM, respectively.

Take `C[C@@H]1CN(c2ccc(C(=O)NS(=O)(=O)c3cc(F)c(NC[C@H]4COCCO4)c([N+](=O)[O-])c3)c(Oc3cnc4[nH]ccc4c3)c2)CCN1CC1=C(c2ccc(Cl)cc2)CCC(C)(C)C1` [Example 30, N-((4-((((S)-1,4-dioxan-2-yl)methyl)amino)-3-fluoro-5-nitrophenyl)sulfonyl)-2-((1H-pyrrolo[2,3-b]pyridin-5-yl)oxy)-4-((R)-4-((4′-chloro-4,4-dimethyl-3,4,5,6-tetrahydro-[1,1′-biphenyl]-2-yl)methyl)-3-methylpiperazin-1-yl)benzamide]: the IC50 was 0.84 nM in experiment [1], 831 nM in experiment [2] and 2.3 nM in experiment [3].

In the case of `C[C@@H]1CN(c2ccc(C(=O)NS(=O)(=O)c3ccc(NCC4CCOCC4)c([N+](=O)[O-])c3)c(Oc3cnc4[nH]ccc4c3)c2)CCN1CC1=C(c2ccc(Cl)cc2)CC(C)(C)C2(CC2)C1` [Example 31, (R)-2-((1H-Pyrrolo[2,3-b]pyridin-5-yl)oxy)-4-(4-((6-(4-chlorophenyl)-8,8-dimethylspiro[2.5]oct-5-en-5-yl)methyl)-3-methylpiperazin-1-yl)-N-((3-nitro-4-(((tetrahydro-2H-pyran-4-yl)methyl)amino)phenyl)sulfonyl)benzamide], the IC50 was 3.57 nM in experiment [1], more than 1000 nM in experiment [2] and 8.1 nM in experiment [3].

Consider `C[C@@H]1CN(c2ccc(C(=O)NS(=O)(=O)c3cc(F)c(NC[C@H]4COCCO4)c([N+](=O)[O-])c3)c(Oc3cnc4[nH]ccc4c3)c2)CCN1CC1=C(c2ccc(Cl)cc2)CC(C)(C)C2(CC2)C1` [Example 32, N-((4-((((S)-1,4-dioxan-2-yl)methyl)amino)-3-fluoro-5-nitrophenyl)-sulfonyl)-2-((1H-pyrrolo [2,3-b]pyridin-5-yl)oxy)-4-((R)-4-((6-(4-chlorophenyl)-8,8-dimethylspiro[2.5]oct-5-en-5-yl)methyl)-3-methylpiperazin-1-yl) benzamide], for which the IC50 in experiment [1] is 1.8 nM; in experiment [2], more than 1000 nM; in experiment [3], 6.6 nM.

With `C[C@@H]1CN(c2ccc(C(=O)NS(=O)(=O)c3cc(F)c(NCC4CCOCC4)c([N+](=O)[O-])c3)c(Oc3cnc4[nH]ccc4c3)c2)CCN1CC1=C(c2ccc(Cl)cc2)CC(C)(C)C2(CC2)C1` [Example 33], the IC50 is 3.16 nM in experiment [1], more than 1000 nM in experiment [2] and 16 nM in experiment [3].

Take `C[C@@H]1CN(c2ccc(C(=O)NS(=O)(=O)c3ccc(NC[C@H]4COCCO4)c([N+](=O)[O-])c3)c(Oc3cnc4[nH]ccc4c3)c2)CCN1CC1=C(c2ccc(Cl)cc2)CC(C)(C)C2(CC2)C1` [Example 34, N-((4-((((S)-1,4-dioxan-2-yl)methyl)amino)-3-nitrophenyl)sulfonyl)-2-((1H-pyrrolo[2,3-b]pyridin-5-yl)oxy)-4-((R)-4-((6-(4-chlorophenyl)-8,8-dimethylspiro[2.5]oct-5-en-5-yl)methyl)-3-methylpiperazin-1-yl) benzamide]: the IC50 in experiment [1] is 3.33 nM; in experiment [2] it was more than 1000 nM; in experiment [3] it was 6.6 nM.

Regarding `C[C@@H]1CN(c2ccc(C(=O)NS(=O)(=O)c3cc(F)c(NC[C@H]4COCCO4)c([N+](=O)[O-])c3)c(Oc3cnc4[nH]ccc4c3)c2)CCN1CC1=C(c2ccc(Cl)cc2)CCC2(CC2)C1` [Example 35, N-((4-((((S)-1,4-dioxan-2-yl)methyl)amino)-3-fluoro-5-nitrophenyl)sulfonyl)-2-((1H-pyrrolo[2,3-b]pyridin-5-yl)oxy)-4-((R)-4-((6-(4-chlorophenyl)spiro[2.5]oct-5-en-5-yl)methyl)-3-methylpiperazin-1-yl)benzamide], the figures for the IC50 in experiment [1], in experiment [2] and in experiment [3] were 2.96 nM, more than 1000 nM and 17 nM, respectively.

For the compound `C[C@@H]1CN(c2ccc(C(=O)NS(=O)(=O)c3ccc(NC[C@H]4COCCO4)c([N+](=O)[O-])c3)c(Oc3cnc4[nH]ccc4c3)c2)CCN1CC1=C(c2ccc(Cl)cc2)CCC2(CC2)C1` [Example 36], the IC50 in experiment [1] was 4.78 nM; in experiment [2], more than 1000 nM; in experiment [3], 21 nM.

Turning to `C[C@@H]1CN(c2ccc(C(=O)NS(=O)(=O)c3cc(F)c(NCC4CCOCC4)c([N+](=O)[O-])c3)c(Oc3cnc4[nH]ccc4c3)c2)CCN1CC1=C(c2ccc(Cl)cc2)CCC2(CC2)C1` [Example 37], the 50% inhibitory concentration (IC50) in experiment [1] is 3.15 nM; in experiment [2], more than 1000 nM; in experiment [3], 22 nM.
